# Assay results: US20240277744A1, “TREATMENT OF CHEMORESISTANT CANCER CELLS” (Cornell University, priority 2023, published 2024)
# Experiments:
# DU145 cell line = test: Flow cytometry of TRA-1-81+ cells; format: cell-based; settings: DU145, 25 nM CYM, 5 days
# Experimental: (§1) Flow cytometry. TRA-1-60 PerCP-efluor710 (eBioscience, 1:50) and TRA-1-81 PE (eBioscience, 1:100) were used. Cells were blocked with 5% FBS plus mouse IgM isotype control antibody (eBioscience, 1:100) at room temperature for 15 min, then stained on ice for 30 min. Stained cells were resuspended in PBS containing 300 nM DAPI and proceeded to analysis or sorting. Cell apoptosis was analyzed with FITC-AnnexinV labeling reagent (BD). Flow cytometry analysis was carried out on BD FACS Calibur with FlowJo 9.8 software. Sorting was performed with FACSVantage SE (Becton Dickinson).
# TRA-1-81+ SW1990 cells = test: Flow cytometry of TRA-1-81+ cells; format: cell-based
# Experimental: as §1
# HCT116 cell line = test: Flow cytometry of TRA-1-81+ cells; format: cell-based; settings: HCT-116, 25 nM CYM, 5 days
# Experimental: as §1
# TRA-1-81+ SW1990GR cells = test: Flow cytometry of TRA-1-81+ cells; format: cell-based
# Experimental: as §1
# HPAF-II cells = test: Cell viability with GEM and CYM; format: cell-based; settings: 50 nM GEM and 25 nM CYM, 5 days
# Experimental: (§2) Cell viability, colony formation, sphere formation and growth curve. To quantify viability, cells were plated into 96-well plates (6000/well) one night before treatment. Drugs were then added in indicated dose for 5 days. After fixation, cell nuclei were stained with DAPI (Invitrogen). Plates were analyzed using MetaXpress High Content Image Acquisition and Analysis System (Molecular Devices).
# HT-29 cells = test: Cell viability with GEM and CYM; format: cell-based; settings: HT-29, 50 nM GEM and 25 nM CYM, 5 days
# Experimental: as §2
# SW1990 cells = test: Cell viability (DAPI nuclei count, high content imaging); format: cell-based; settings: Homo sapiens, SW1990, 72 h, read-out: IC50, viability
# Experimental: as §2, with “Drugs were then added in indicated dose for 5 days.” left out
# hESCs = settings: cited from earlier work
# [1] = system: UGT1A10 overexpressing SW1990 cells; test: Cell viability of UGT1A10 overexpressing cells; format: cell-based; settings: 50 nM CYM, control vs UGT1A10 overexpressing SW1990
# Source text: To determine whether UTG1A10 is sufficient to induce TRA-1-81 expression and chemoresistance, UGT1A10 was overexpressed ectopically in SW1990 cells (UGT-OE). Cells expressing firefly luciferase were used as control (CTRL). […] Indeed, the viability of UGT-OE cells is higher than control cells following GEM treatment (FIG. 4G). […] In summary, UGT1A10 is both required and sufficient to enhance TRA-1-60 and TRA-1-81 expression and chemoresistance.
# LentiLuc-blast and LentiUGT1A10-blast plasmid were generated based on LentiCas9-blast vector (Addgene, 52926). Luciferasec DNA was cloned from pGL3-promoter plasmid (Promega) with PCR amplification and inserted between AgeI and BamHI sites. UGT1A10 cDNA was PCR amplified from plasmid purchased from Dharmacon (MHS6278-202756114) and inserted between XbaI and BamHI sites. Primers were used as below: […]
# as §2
# SW1990GR cells [2] = test: Cell viability (DAPI nuclei count, high content imaging); format: cell-based; settings: 72 h, CYM 0-500 nM, 3 days, read-out: IC50, viability
# Experimental: To establish GR cell lines, cells were first cultured with 10 nM GEM till cell growth became stable. […] Once cell growth became stable in 100 nM GEM, cells were expanded in 100 nM GEM and used in assays.
# as §2, with “Drugs were then added in indicated dose for 5 days.” left out
# TRA-1-60+ SW1990GR cells = test: High content screen / immunofluorescent staining of TRA-1-60+ cells; format: cell-based
# Experimental: Immunofluorescent staining. Primary antibodies were TRA-1-60 antibody (BD, 1:200), biotin conjugated TRA-1-60 antibody (eBioscience, 1:200). Secondary antibodies were donkey anti-mouse Alexa-efluor594 (Life technologies, 1:500) or streptavidin conjugated Alexa Fluor® 594 (Life technologies, 1:200).
# Cells were fixed with 10% formalin for 20 min at room temperature. After 1 hour blocking in PBS with 5% horse serum and 0.3% triton-X100, primary antibodies were added to cells and incubated overnight at 4° C. Secondary antibody incubation was 1.5 hours at room temperature.
# Chemical library screening. The Prestwick library of FDA approved drugs (˜1280 chemicals) plus a collection of drugs in clinical trials was used for the screen on SW1990GR cells.
# For screening, SW1990GR cells were plated in 384-well plates (5000 cells/well). After overnight incubation, chemicals were added at 1 μM or 10 μM in duplicate. After 5 days of treatment, plates were stained with TRA-1-60 antibody and analyzed with MetaXpress High Content Image Acquisition and Analysis System (Molecular Devices). Wells treated with DMSO were set as control. The reduction was calculated by subtracting the percentage of TRA-1-60^+ cells in the chemical-treated wells from that of control wells. Standard deviation of TRA-1-60^+ percentage in control wells was calculated and 3-fold of this value was taken as threshold to pick up the primary hit.
# SW1990GR cells [3] = test: Annexin V/DAPI apoptosis by flow cytometry; format: cell-based; settings: 100 nM or 200 nM CYM, one day; TRA-1-81+ and TRA-1-81− subpopulations
# Experimental: as §1
compound,measurement,setting,value
"CO[C@H]1C[C@H](O[C@H]2CC[C@]3(C=O)[C@H]4CC[C@]5(C)[C@@H](C6=CC(=O)OC6)CC[C@]5(O)[C@@H]4CC[C@]3(O)C2)O[C@H](C)[C@H]1O [CYM, Cymarin]",percentage of TRA-1-81+ cells,DU145 cell line,decreased
same,IC50,"TRA-1-81+ SW1990 cells; Homo sapiens, SW1990, read-out: IC50, repression of TRA-1-81+ cells",6.3 ± 2.2 nM
same,TRA-1-81+ cells in time course,"TRA-1-81+ SW1990 cells; SW1990, 25 nM CYM",decrease of TRA-1-81^+ cells over time
same,percentage of TRA-1-81+ cells with or without acute GEM,"TRA-1-81+ SW1990 cells; SW1990, 5 days, 25 nM CYM or 100 nM GEM plus 25 nM CYM",decreased the percentage of TRA-1-81^+ cells effectively regardless of GEM
same,percentage of TRA-1-81+ cells,HCT116 cell line,decreased
same,TRA-1-81+ cells in time course,TRA-1-81+ SW1990GR cells; 25 nM CYM,decrease of TRA-1-81^+ cells over time
same,IC50,"TRA-1-81+ SW1990GR cells; flow cytometry, read-out: IC50, decrease of percentage of TRA-1-81+ cells",5.1 ± 1.5 nM
same,survival of GEM-resistant cells,HPAF-II cells,significantly decreased the survival
same,survival of GEM-resistant cells,HT-29 cells,significantly decreased the survival
same,IC50,SW1990 cells,33.8 ± 2.6 nM
same,effect on hESCs in a previous screen,hESCs,differentiation inducer of hESCs
same,effect of ectopic UGT1A10 expression on Cymarin anti-chemoresistant activity,[1],partially rescues
same,IC50,SW1990GR cells [2],40.8 ± 3.1 nM
same,percentage of TRA-1-60+ cells after treatment,"TRA-1-60+ SW1990GR cells; 25 nM CYM, 5 days, SW1990GR, from ~18%",less than 5%
same,relative potency in TRA-1-60 inhibition,TRA-1-60+ SW1990GR cells; SW1990GR,higher potency than Ouabain
same,validation of primary hit,TRA-1-60+ SW1990GR cells; SW1990GR,able to be validated
same,IC50,"TRA-1-60+ SW1990GR cells; read-out: IC50, decrease of percentage of TRA-1-60+ cells",15.2 ± 4.3 nM
same,percentage of Annexin V+/DAPI− (early) and Annexin V+/DAPI+ (late) apoptotic cells,SW1990GR cells [3],increased
